Our source for the X-ray crystal structure and Kd values is article PMC7708434 (Biochimica et biophysica acta. General subjects, 2020).

A word on the Kd: it is the free concentration of one partner at which half of the binding sites on the other are occupied at equilibrium, for simple one-to-one binding. Read a high Kd as weaker binding.

What all share (assay type): binding
Test [1] concerns the target T1, 4-hydroxy-tetrahydrodipicolinate reductase (VvDapB) (Vibrio vulnificus, UniProt Q8DEM0). Description: X-ray crystal structure.
Test [2] has as its target T2, 4-hydroxy-tetrahydrodipicolinate reductase (MtDapB) (Mycobacterium tuberculosis, UniProt P9WP23). Briefly: X-ray crystal structure.
The target in test [3] is T1, 4-hydroxy-tetrahydrodipicolinate reductase (VvDapB). Briefly: ITC. For orientation: ITC needs no label: the signal is the heat of the interaction.
Test [4] addresses T2, 4-hydroxy-tetrahydrodipicolinate reductase (MtDapB). Briefly: ITC.

T1 sequence (Q8DEM0 whole entry): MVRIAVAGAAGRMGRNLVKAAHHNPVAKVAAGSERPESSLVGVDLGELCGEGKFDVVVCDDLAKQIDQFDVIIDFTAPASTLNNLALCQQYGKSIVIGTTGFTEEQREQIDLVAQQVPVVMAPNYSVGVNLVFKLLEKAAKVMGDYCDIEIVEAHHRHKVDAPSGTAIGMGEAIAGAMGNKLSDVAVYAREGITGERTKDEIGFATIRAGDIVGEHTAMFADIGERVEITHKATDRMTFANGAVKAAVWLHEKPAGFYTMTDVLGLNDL
T2 sequence (P9WP23 whole entry): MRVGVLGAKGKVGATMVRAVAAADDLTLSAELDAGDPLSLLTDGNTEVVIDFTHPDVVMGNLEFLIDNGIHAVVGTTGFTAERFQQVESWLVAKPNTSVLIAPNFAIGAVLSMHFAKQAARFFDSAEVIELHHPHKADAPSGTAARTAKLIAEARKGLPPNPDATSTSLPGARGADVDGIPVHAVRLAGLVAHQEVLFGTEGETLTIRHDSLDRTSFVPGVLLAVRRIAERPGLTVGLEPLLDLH

Regarding `NC(=O)c1ccc[n+]([C@@H]2O[C@H](COP(=O)([O-])OP(=O)(O)OC[C@H]3O[C@@H](n4cnc5c(N)ncnc54)[C@H](O)[C@@H]3O)[C@@H](O)[C@H]2O)c1` [NAD+], the X-ray crystal structure entry in test [1] was “NADH was used for crystallization, in all cases we observed NAD^+ in the crystal structures”; in test [2], “apo MtDapB (PDB ID: 5TEK chain A) and NAD^+ bound MtDapB (PDB ID: 5UGV chain A) structures”.
Regarding `NC(=O)C1=CN([C@@H]2O[C@H](COP(=O)(O)OP(=O)(O)OC[C@H]3O[C@@H](n4cnc5c(N)ncnc54)[C@H](O)[C@@H]3O)[C@@H](O)[C@H]2O)C=CC1` [NADH], the Kd in test [3] came out at 3.9 ± 1.2 µM; in test [4] it was 3.6 ± 0.4 µM.
